In assay [1] the test system is SRS-A release. Put plainly: Inhibition of SRS-A release from passively sensitized guinea pig lung suspension, bioassay on isolated guinea pig ileum (Experiment 1). Type of assay: cell-based, Hartley guinea pig. To be noted: Cavia porcellus, 37° C, read-out: Release inhibitory rate, SRS-A. The method, then:
(§1) Hartley guinea pig (male, weighing about 400 g) was passively sensitized by an intravenous injection of anti-egg albumin guinea pig serum. 48 hours after the sensitization, the lung was taken out and cut finely to prepare a lung suspension. To the suspension were added a test compound and egg albumin, and the mixture was incubated at 37° C. After the reaction, the mixture was centrifuged, and then the amount of histamine and SRS-A in the supernatant was measured. The amount of histamine was measured by a fluorometry in accordance with the method of May et al [cf. J. Allerg., Vol. 40, page 12 (1970)]. The amount of SRS-A was measured by a bioassay using an isolated guinea pig ileum. That is, the guinea pig ileum was suspended within Magnus vessel, and thereto were added an antihistaminic, an antiacetylcholine agent and a test solution, and based on the shrink of guinea pig ileum, the amount of SRS-A was calculated.

For assay [2], the system named is PCA (passive cutaneous anaphylaxis). Put plainly: Passive cutaneous anaphylaxis (PCA) inhibition in rats (Experiment 2). Type of assay: in vivo, Wistar rats. To be noted: Rattus norvegicus, read-out: PCA inhibitory rate; for inhibition in vivo at 3 mg/kg: 3 mg/kg intravenous, 5 minutes before antigen challenge, six rats (Table 5); for inhibition in vivo at 200 mg/kg: 200 mg/kg oral, one hour before induction of PCA, six rats (Table 2); for inhibition in vivo at 30 mg/kg: 30 mg/kg oral. The method, then:
Wistar rats (male, weighing about 200 g) were passively sensitized by an intradermal injection of each 0.1 ml of anti-egg albumin rat serum both sides of median line on back of the animals (each two points, totally 4 points). After 48 hours, a mixture (1 ml) of egg albumin and Evans blue was injected via tail vein, by which PCA (passive cutaneous anaphylaxis) was induced. After 30 minutes, the blue colored region was cut out and the amount of color was measured by the method of Katayama et al [cf. Microbiol. Immunol., Vol. 22, page 89 (1978)]. One hour before the induction of PCA, each test compound was orally administered to six rats at a dose of 200 mg/kg per each rat.
In the above experiments, the test compound was orally administered to six rats at a dose of 30 mg/kg per each rat one hour before the antigen challenge.
In the above experiments, the test compound was orally administered to six rats at a dose of 30 mg/kg per each rat 30 minutes before the antigen challenge.
In the above experiments, the test compound was intravenously administered to six rats at a dose of 3 mg/kg per each rat 5 minutes before the antigen challenge.

The subject of assay [3] is Histamine release. The experiment in a line: Inhibition of histamine release from passively sensitized guinea pig lung suspension (Experiment 1). Type of assay: cell-based, Hartley guinea pig. To be noted: Cavia porcellus, 37° C, fluorometry, read-out: Release inhibitory rate, Histamine. The method, then: as §1
Where [4] appears, read: 30 minutes before antigen challenge, six rats (Table 4).
The mark [5] stands for this setting: 1 h, one hour before antigen challenge, six rats (Table 3).

Like-named read-outs stand apart in the source and are kept apart here.

For the molecule `O=C(O)C(=O)Nc1cc(N2CCOCC2)nc(NC(=O)C(=O)O)n1` [6-morpholinopyrimidine-2,4-dioxamic acid hydrate], the values for the inhibition at 100 µM in assay [1] and in assay [3] were 47.3% and 21.2%, respectively. Further, the inhibition in vivo at 3 mg/kg in assay [2] turned out to be 100%.

Take `O=C(O)C(=O)Nc1cc(N2CCCCC2)nc(NC(=O)C(=O)O)n1` [6-piperidinopyrimidine-2,4-dioxamic acid hydrate]: the values for the inhibition at 100 µM in assay [1] and in assay [3] were 43.2% and 20.5%, respectively. For the same molecule, the inhibition in vivo at 3 mg/kg in assay [2] is 100%.

Consider `CCCOC(=O)C(=O)Nc1cc(N2CCOCC2)nc(NC(=O)C(=O)OCCC)n1` [di-n-propyl 6-morpholinopyrimidine-2,4-dioxamate], for which the inhibition at 100 µM in assay [1] amounted to 50%; in assay [3], 29.8%.

`CCCOC(=O)C(=O)Nc1cc(N2CCCCC2)nc(NC(=O)C(=O)OCCC)n1` [di-n-propyl 6-piperidinopyrimidine-2,4-dioxamate]: the inhibition at 100 µM in assay [1] was found to be 52.3%; in assay [3], 31.6%.

Take `O=C(Nc1cc(N2CCOCC2)nc(NC(=O)C(=O)OCc2ccccc2)n1)C(=O)OCc1ccccc1` [dibenzyl 6-morpholinopyrimidine-2,4-dioxamate]: the inhibition at 100 µM in assay [1] is 52.6%; in assay [3], 31.1%.

`O=C(Nc1cc(N2CCCCC2)nc(NC(=O)C(=O)OCc2ccccc2)n1)C(=O)OCc1ccccc1` [dibenzyl 6-piperidinopyrimidine-2,4-dioxamate semihydrate]: the inhibition at 100 µM in assay [1] was determined as 48.6%; in assay [3], 26.5%.

Turning to `CCOC(=O)C(=O)Nc1cc(Cl)nc(NC(=O)C(=O)OCC)n1` [diethyl 4-chloropyrimidine-2,6-dioxamate monohydrate], the inhibition at 100 µM in assay [1] was 52.7%; in assay [3], 24.5%. Moreover, the inhibition in vivo at 200 mg/kg in assay [2] (1 h) stood at 41.7%.

Regarding `CCOC(=O)C(=O)Nc1cc(N2CCN(C)CC2)nc(NC(=O)C(=O)OCC)n1` [diethyl 6-(4-methylpiperazino)pyrimidine-2,4-dioxamate], the results for the inhibition at 100 µM in assay [1] and in assay [3] were 33.3% and 23.7%, respectively.

As to `CCOC(=O)C(=O)Nc1cc(OC)nc(NC(=O)C(=O)OCC)n1` [diethyl 6-methoxypyrimidine-2,4-dioxamate monohydrate], the inhibition at 100 µM in assay [1] is 57.6%; in assay [3], 44.2%. For the same molecule, the inhibition in vivo at 200 mg/kg in assay [2] (1 h) worked out at 83.4%.

Consider `CCOC(=O)C(=O)Nc1cc(N2CCOCC2)nc(NC(=O)C(=O)OCC)n1` [diethyl 6-morpholinopyrimidine-2,4-dioxamate], for which the inhibition at 100 µM amounted to 52.6% in assay [1] and 36.2% in assay [3]. Further, the inhibition in vivo at 200 mg/kg in assay [2] (1 h) stood at 96.6%. The inhibition in vivo at 30 mg/kg in assay [2] (setting [4]) came out at 91.7%.

Consider `CCOC(=O)C(=O)Nc1cc(N2CCCCC2)nc(NC(=O)C(=O)OCC)n1` [diethyl 6-piperidinopyrimidine-2,4-dioxamate], for which the inhibition at 100 µM stood at 46.6% in assay [1] and 12.2% in assay [3]. Further, the inhibition in vivo at 200 mg/kg in assay [2] (1 h) is 92.4%. For the same molecule, the inhibition in vivo at 3 mg/kg in assay [2] was 100%. For the same molecule, the inhibition in vivo at 30 mg/kg in assay [2] (setting [4]) was found to be 90.6%.

Regarding `CCOC(=O)C(=O)Nc1cc(N2CCCC2)nc(NC(=O)C(=O)OCC)n1` [diethyl 6-pyrrolidinopyrimidine-2,4-dioxamate], the inhibition at 100 µM in assay [1] is 32.8%; in assay [3] it was 16.1%. Besides, the inhibition in vivo at 200 mg/kg in assay [2] (1 h) came to 87.3%. Moreover, the inhibition in vivo at 30 mg/kg in assay [2] (setting [4]) is 73.1%.

For `CC(C)OC(=O)C(=O)Nc1cc(N2CCOCC2)nc(NC(=O)C(=O)OC(C)C)n1` [diisopropyl 6-morpholinopyrimidine-2,4-dioxamate], the inhibition at 100 µM in assay [1] is 59.9%; in assay [3], 30.8%. In addition, the inhibition in vivo at 3 mg/kg in assay [2] came to 100%.

Take `COC(=O)C(=O)Nc1cc(N2CCCCCC2)nc(NC(=O)C(=O)OC)n1` [dimethyl 6-homopiperidinopyrimidine-2,4-dioxamate]: the inhibition at 100 µM in assay [1] turned out to be 49.2%; in assay [3] it was 26.3%. Further, in assay [2] (setting [5]), the inhibition in vivo at 30 mg/kg came out at 76.9%.

Consider `COC(=O)C(=O)Nc1cc(N2CCOCC2)nc(NC(=O)C(=O)OC)n1` [dimethyl 6-morpholinopyrimidine-2,4-dioxamate], for which the inhibition at 100 µM was 47.3% in assay [1] and 27.7% in assay [3]. Also, the inhibition in vivo at 30 mg/kg in assay [2] (setting [5]) is 98.5%. In addition, the inhibition in vivo at 3 mg/kg in assay [2] stood at 100%.

As to `COC(=O)C(=O)Nc1cc(N2CCCCC2)nc(NC(=O)C(=O)OC)n1` [dimethyl 6-piperidinopyrimidine-2,4-dioxamate], the inhibition at 100 µM was 50% in assay [1] and 32.1% in assay [3]. In addition, in assay [2] (1 h), the inhibition in vivo at 200 mg/kg was 85.6%. Moreover, the inhibition in vivo at 30 mg/kg in assay [2] (setting [4]) stood at 54.4%.

Take `COC(=O)C(=O)Nc1cc(N2CCCC2)nc(NC(=O)C(=O)OC)n1` [dimethyl 6-pyrrolidinopyrimidine-2,4-dioxamate]: the inhibition at 100 µM in assay [1] was determined as 40.2%; in assay [3], 19.9%. The inhibition in vivo at 30 mg/kg in assay [2] (setting [5]) was 81.2%.

These data come from US4729995A, “Pyrimidine 2,4-dioxamate compounds and pharmaceutical compositions” (Toyo Boseki Kabushiki Kaisha, priority 1986, dated 1988).
